Results published in publication PMC4153969, “A Novel Suspension Formulation Enhances Intestinal Absorption of Macromolecules Via Transient and Reversible Transport Mechanisms” (Pharmaceutical Research, 2014).

How the values were obtained:
in vivo [1] = test: in vivo
Procedure: Octreotide acetate in saline was also injected subcutaneously to this animal model.
The octreotide immunoassay is based on a single-step, extraction-free, simultaneous assay procedure (Peninsula Laboratories, Division of Bachem, San Carlos, CA) designed to quantify octreotide concentrations. Briefly, octreotide standards (0.05–6.25 ng/mL) and rat plasma samples were diluted 1:10 with PBS, followed by addition of octreotide anti-rabbit antiserum antibody, biotinylated octreotide tracer, and assay buffer. Samples were washed and incubated with streptavidin–HRP. Optical density was read at a dual absorbance of 450 nm and 630 nm using an Enzyme-Linked Immunoassay (ELISA) reader (Multiskan EX Labsystems; Thermo Electron Corporation, Milford, MA) after addition of TMB solution and acidic stopping solution.
Results were expressed as mean ± SE. The area under plasma concentration–time profile measured from time zero to the last measurable plasma concentration was calculated according to the linear trapezoidal rule. Relative enteral bioavailability (rBA) following intra-jejunal administration of the OS formulation to rats was calculated compared with SC injection as follows: rBA%=AUCjejunum/AUCSC×DoseSC/Dosejejunum×100

in vivo [2] = details: cynomolgus monkey, plasma, sc, 0.1 mg, plasma octreotide, SC injection 0.1 mg daily
Procedure: Enteric-coated capsules containing octreotide (20 mg)/OS or olive oil were administrated daily per os to fasted monkeys for 9 months, and swallowed with 10 mL water. In addition, a 1 mL ampule containing octreotide acetate at a concentration of 0.1 mg/mL (Sandostatin®, Novartis Pharmaceuticals, East Hanover, NJ) was administered by daily subcutaneous (SC) injection to another monkeys group. Oral administration of OS in rodent studies was limited due to the lack of properly enteric coated mini-gelatin capsules. Thus, the OS, containing fluorescent marker molecules (see below) or octreotide was enterally injected via implanted cannulas.
On Day 1 and after 3, 6 and 9 months, whole-blood samples (3.0 mL) were collected at routine intervals after completion of oral octreotide dosing. Plasma octreotide levels were determined by a validated liquid chromatographic spectrometric method (PPD Laboratories, Richmond, VA) as described elsewhere ([18]). The maximum plasma concentration (Cmax) and time to Cmax (Tmax) were derived from the data. The area under the curve (AUC) from zero to the last sample with a concentration ≥LOQ [AUC(0-t)] was calculated using the linear trapezoidal method. Analysis of plasma octreotide concentration vs. time was performed using SAS® for Windows® Version 9.3. The primary pharmacokinetic end point variables (Cmax and AUC0-t) were compared using analysis of variance (ANOVA) with treatment time (1, 180, 270-d) as a within-subject (repeated measures)-factor and sex as a between-subject factor.

Cynomolgus monkeys = test: 9-month chronic toxicity study, daily oral enteric-coated capsules; assay type: in vivo, Cynomolgus monkeys (Macaca fasicularis); details: compared to the negative control group (olive oil)
Procedure: During the dosing period, animals were fasted for 8 to 10 h prior to dosing, and the first feeding was given 2 h after dosing. Monkeys were observed twice daily for mortality, morbidity, and clinical signs of adverse health effects and qualitative food consumption. Weekly examinations were performed on each animal before drug administration and before terminal sacrifice. Pre-dose body weights were recorded (week −1) and weekly thereafter. Blood samples (~5 ml) were collected for hematology and serum chemistry from the femoral vein before drug administration and from surviving animals prior to the terminal necropsy.
A complete ophthalmic examination was performed on each monkey by a Diplomat of the American College of Veterinary Ophthalmologist veterinarian before animal selection/group assignment (pretest) and again, prior to study termination.
Electrocardiograms (ECGs) were obtained twice pre-study and were analyzed by a veterinary cardiologist for the presence of significant abnormalities. ECGs were also obtained following the 1st dose and at the 3, 6, and 9 months of dosing. Standard ECGs (10 Lead) were recorded at 50 mm/s. Using Lead II (or another appropriate lead), the RR, PR, and QT intervals, and QRS duration were measured and heart rate was determined. The QT interval was calculated using Bazett’s Rule. […]

Question: Which AUC(0-t) (in vivo [1]; Sprague-Dawley, rat, plasma, sc, 0.172 mg/kg) does the source give for `C[C@@H](O)[C@@H]1NC(=O)[C@H](CCCCN)NC(=O)[C@@H](Cc2c[nH]c3ccccc23)NC(=O)[C@H](Cc2ccccc2)NC(=O)[C@@H](NC(=O)[C@H](N)Cc2ccccc2)CSSC[C@@H](C(=O)N[C@H](CO)[C@@H](C)O)NC1=O` [octreotide acetate] here?
Answer: The AUC(0-t) was 205 ng·h/mL.

Question: And the “change in rat plasma peptide concentrations” value (in vivo [1]; enteral dosing in saline solution without OS, data not shown)?
Answer: Its value is “negligible changes”.

Question: What about the AUC(0-t) (in vivo [2]; female, Day 1, female monkeys) of the same compound?
Answer: Its AUC(0-t) is 64.3 ± 5.3 ng·h/mL.

Question: And the AUC(0-t) (in vivo [2]; female, Day 180, female monkeys)?
Answer: Its AUC(0-t) is 60.8 ± 6.9 ng·h/mL.

Question: And the AUC(0-t) (in vivo [2]; female, Day 270, female monkeys)?
Answer: The AUC(0-t) was 49.6 ± 3 ng·h/mL.

Question: And the AUC(0-t) (in vivo [2]; male, Day 1, male monkeys)?
Answer: The AUC(0-t) was 41.7 ± 8.6 ng·h/mL.

Question: And the AUC(0-t) (in vivo [2]; male, Day 180, male monkeys)?
Answer: The AUC(0-t) was 46.2 ± 5.4 ng·h/mL.

Question: What about the AUC(0-t) (in vivo [2]; male, Day 270, male monkeys) of the same compound?
Answer: The AUC(0-t) was 51.3 ± 11.3 ng·h/mL.

Question: And the “clinical observation: hair and skin” value (Cynomolgus monkeys; both sexes)?
Answer: Its value is “increased incidence of sparse hair and red discoloured skin”.

Question: And the “clinical observation: feces” value (Cynomolgus monkeys)?
Answer: The value was “higher incidence of watery feces”.
